In patent publication US20240398812A1 (Caraway Therapeutics, Inc., priority 2021, published 2024):
pEC50: −log10 of the molar value.

Tests used:
TRPML3 = target: T1, TRPML3 (Homo sapiens, UniProt Q8TDD5); assay: Fluorescent TRPML3 assay (as for TRPML1); format: cell-based
T1 construct: expressed in transfected cells
T1 sequence (Q8TDD5 1-553): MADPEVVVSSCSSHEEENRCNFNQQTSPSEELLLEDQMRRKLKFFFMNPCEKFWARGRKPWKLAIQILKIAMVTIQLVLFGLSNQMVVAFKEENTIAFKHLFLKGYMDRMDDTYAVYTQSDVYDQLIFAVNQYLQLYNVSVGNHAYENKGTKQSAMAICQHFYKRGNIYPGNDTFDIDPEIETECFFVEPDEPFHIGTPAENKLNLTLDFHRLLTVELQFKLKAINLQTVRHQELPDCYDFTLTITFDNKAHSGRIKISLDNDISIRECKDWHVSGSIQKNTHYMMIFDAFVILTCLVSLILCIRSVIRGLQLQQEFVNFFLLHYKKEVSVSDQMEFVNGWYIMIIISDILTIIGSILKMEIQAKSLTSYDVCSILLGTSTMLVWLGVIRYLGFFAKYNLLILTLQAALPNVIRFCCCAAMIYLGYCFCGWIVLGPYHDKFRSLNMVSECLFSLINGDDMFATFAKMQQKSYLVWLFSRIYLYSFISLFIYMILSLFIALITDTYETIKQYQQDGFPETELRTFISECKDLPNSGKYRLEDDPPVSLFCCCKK
Experimental: (§1) HEK-293 Trex cells were stably transfected with a construct consisting of the human coding sequence for TRPML1 cloned into the tet-inducible plasmid pCDNA5 T/O. Mutations were introduced into the TRPML1 sequence to facilitate expression on the cell surface (Silvia Vergarajauregui, Rosa Puertollano Traffic. 2006 March; 7 (3): 337-353). Briefly, the cells are cultured in 150 mm round tissue culture dishes containing 20 mL of media. The day before the assay the cells are rinsed with DPBS —Ca—Mg and then treated briefly with Trypsin-EDTA. The Trypsin-EDTA is diluted with growth media, and cells are counted. 38×10^6 cells are re-plated into 150 mm round tissue culture dishes in media containing 0.5 ug/mL doxycycline to induce expression of hTRPML1.
(§2) The day of the experiment cells are lifted from the plates as above and collected by centrifugation. The cells are then suspended in dye loading buffer consisting of Ringer's solution supplemented with 0.1% Pluronic Acid and 1 micromolar Fluo4-AM dye. Cells are loaded for ˜60 minutes in the dark with occasional mixing. The cells are collected by centrifugation, the loading media aspirated, and the cells resuspended in 25 mL Ringer's solution and incubated ˜60 minutes in the dark. The cells are again collected by centrifugation, rinsed in Ringer's Solution and resuspended to 0.2×10^6 cells/mL in modified Ringer's solution containing 10 mM calcium.
(§3) Compounds are dissolved to a concentration of 10 millimolar with DMSO. Compound plates are created by dispensing compounds into 384 well black wall clear bottom plates (Greiner 781091). Positive and negative controls are included on each plate. Typically, different amounts of each compound are tested ranging from 100 nanoMoles (20 micromolar final concentration) decreasing in half-log steps to 31 picoMoles (6 nanomolar final concentration). Each concentration is typically tested in triplicate.
(§4) 50 microliters of dye-loaded cells are dispensed into each well of the compound assay plate created above. The fluorescence in each well is then determined with an excitation wavelength of 480 nm and an emission wavelength of 540 nm using either a Molecular Devices SpectraMax multimode plate reader or a Hamamatsu FDSS/uCell plate imager.
(§5) The resulting fluorescence for each well is exported as an ascii file and loaded into our LIMS for analysis. The percent activity of each compound at each concentration is determined by comparison to the positive and negative control wells included in each plate.
Assays for TRPML2 and TRPML3 were performed as above for TRPML1, by substituting the appropriate TRPML2 or TRPML3 subtype for the TRPML1.
(§6) EC50 values were calculated using a non-linear regression of Prism. In the table, “A” indicates an EC50 of less than 100 nM, “B” indicates an EC50 range from 100 nM to 500 nM; “C” indicates an EC50 range from 500 nM to 2 μM; and “D” indicates an EC50 greater than 2 μM.

human TRPML1 = human TRPML1 (Homo sapiens, UniProt Q9GZU1); assay: Fluorescent TRPML1 assay (Fluo4-AM calcium fluorescence, HEK-293 Trex cells); format: cell-based
Sequence of human TRPML1 (Q9GZU1 whole entry L15A/L16A/L577A/L578A, form open): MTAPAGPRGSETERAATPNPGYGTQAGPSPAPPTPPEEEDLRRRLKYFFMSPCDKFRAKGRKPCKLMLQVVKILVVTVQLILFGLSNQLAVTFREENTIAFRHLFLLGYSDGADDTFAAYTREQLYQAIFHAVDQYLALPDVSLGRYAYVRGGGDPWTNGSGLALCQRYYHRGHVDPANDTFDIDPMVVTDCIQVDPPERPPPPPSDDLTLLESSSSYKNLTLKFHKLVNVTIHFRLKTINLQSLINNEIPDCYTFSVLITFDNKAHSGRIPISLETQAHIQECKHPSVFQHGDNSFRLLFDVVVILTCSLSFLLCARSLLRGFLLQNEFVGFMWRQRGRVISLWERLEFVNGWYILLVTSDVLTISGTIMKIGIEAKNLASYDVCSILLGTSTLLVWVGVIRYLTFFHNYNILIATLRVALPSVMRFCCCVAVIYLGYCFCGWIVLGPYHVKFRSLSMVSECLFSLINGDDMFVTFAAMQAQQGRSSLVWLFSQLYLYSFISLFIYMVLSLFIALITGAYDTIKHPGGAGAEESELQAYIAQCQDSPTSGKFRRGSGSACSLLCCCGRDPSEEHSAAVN
Experimental: as §1, §2, §3, §4, §5, §6

Row | SMILES | pEC50 (TRPML3; Table 3, compounds 101-177) | pEC50 (human TRPML1; Table 3, compounds 101-177) | pEC50 (TRPML3; Table 3, compounds 201-283) | pEC50 (human TRPML1; Table 3, compounds 201-283)
1 | CC(C)(O)C(=O)N1CCN(c2ncnc3c2c(-c2ccccc2F)cn3-c2cc(C#N)ccn2)C2(CC2)C1 [Compound 174, 2-(5-(2-fluorophenyl)-4-(7-(2-hydroxy-2-methylpropanoyl)-4,7-diazaspiro[2.5]octan-4-yl)-7H-pyrrolo[2,3-d]pyrimidin-7-yl)isonicotinonitrile] | > 7.00 | > 7.00 |  | 
2 | Cc1nccnc1-c1cn(-c2cccc(Cl)c2)c2ncnc(N3C[C@@H](C)N(C(=O)C(C)C)C[C@@H]3C)c12 [Compound 175, 1-((2R,5S)-4-(7-(3-chlorophenyl)-5-(3-methylpyrazin-2-yl)-7H-pyrrolo[2,3-d]pyrimidin-4-yl)-2,5-dimethylpiperazin-1-yl)-2-methylpropan-1-one] | < 5.70 | 5.70 to 6.30 |  | 
3 | Cc1nccnc1-c1cn(-c2cccc(Cl)c2)c2ncnc(N3C[C@@H](C)N(C(=O)CC(C)C)C[C@@H]3C)c12 [Compound 176, 1-((2R,5S)-4-(7-(3-chlorophenyl)-5-(3-methylpyrazin-2-yl)-7H-pyrrolo[2,3-d]pyrimidin-4-yl)-2,5-dimethylpiperazin-1-yl)-3-methylbutan-1-one] | < 5.70 | 5.70 to 6.30 |  | 
4 | Cc1nccnc1-c1cn(-c2cc(F)cc(F)c2)c2ncnc(N3C[C@@H](C)N(C(=O)CC(C)C)C[C@@H]3C)c12 [Compound 177, 1-((2R,5S)-4-(7-(3,5-difluorophenyl)-5-(3-methylpyrazin-2-yl)-7H-pyrrolo[2,3-d]pyrimidin-4-yl)-2,5-dimethylpiperazin-1-yl)-3-methylbutan-1-one] | < 5.70 | 5.70 to 6.30 |  | 
5 | C[C@@H]1CN(c2ncnc3c2c(C2CC2)cn3-c2cc(F)cc(F)c2)[C@@H](C)CN1C(=O)C(C)(C)C [Compound 205, 1-((2R,5S)-4-(5-cyclopropyl-7-(3,5-difluorophenyl)-7H-pyrrolo[2,3-d]pyrimidin-4-yl)-2,5-dimethylpiperazin-1-yl)-2,2-dimethylpropan-1-one] |  |  | 6.30 to 7.00 | > 7.00
6 | COC(C)(C)C(=O)N1CCN(c2ncnc3c2c(C(F)(F)F)cn3-c2cc(C#N)ccn2)[C@@H](C)C1 [Compound 210, (S)-2-(4-(4-(2-methoxy-2-methylpropanoyl)-2-methylpiperazin-1-yl)-5-(trifluoromethyl)-7H-pyrrolo[2,3-d]pyrimidin-7-yl)isonicotinonitrile] |  |  | 5.70 to 6.30 | 6.30 to 7.00
7 | CC(C)C(=O)N1CCN(c2ncnc3c(-c4cc(C#N)ccn4)cn(-c4ccccn4)c23)[C@@H](C)C1 [Compound 211, (S)-2-(4-(4-isobutyryl-2-methylpiperazin-1-yl)-5-(pyridin-2-yl)-5H-pyrrolo[3,2-d]pyrimidin-7-yl)isonicotinonitrile] |  |  | < 5.70 | < 5.70
8 | CC(C)C(=O)N1CCN(c2ncnc3c(-c4cc(C#N)ccn4)cn(-c4ccccc4F)c23)[C@@H](C)C1 [Compound 212, (S)-2-(5-(2-fluorophenyl)-4-(4-isobutyryl-2-methylpiperazin-1-yl)-5H-pyrrolo[3,2-d]pyrimidin-7-yl)isonicotinonitrile] |  |  | 6.30 to 7.00 | 6.30 to 7.00
9 | CC(C)C(=O)N1C[C@H](C)N(c2ncnc3c(-c4cc(C#N)ccn4)cn(-c4ccccc4F)c23)C[C@H]1C [Compound 213, 2-(5-(2-fluorophenyl)-4-((2S,5R)-4-isobutyryl-2,5-dimethylpiperazin-1-yl)-5H-pyrrolo [3,2-d]pyrimidin-7-yl)isonicotinonitrile] |  |  | > 7.00 | > 7.00
10 | C[C@H]1CN(C(=O)C(C)(C)C)CCN1c1ncnc2c1c(N1CCC1)cn2-c1cccc(F)c1 [Compound 216, (S)-1-(4-(5-(azetidin-1-yl)-7-(3-fluorophenyl)-7H-pyrrolo[2,3-d]pyrimidin-4-yl)-3-methylpiperazin-1-yl)-2,2-dimethylpropan-1-one] |  |  | < 5.70 | > 7.00
11 | C[C@@H]1CN(c2ncnc3c2c(N2CCC2)cn3-c2cc(F)cc(F)c2)[C@@H](C)CN1C(=O)C(C)(C)C [Compound 217, 1-((2R,5S)-4-(5-(azetidin-1-yl)-7-(3,5 difluorophenyl)-7H-pyrrolo[2,3-d]pyrimidin-4-yl)2,5-dimethylpiperazin-1-yl)-2,2-dimethylpropan-1-one] |  |  | 6.30 to 7.00 | > 7.00
12 | CC(C)C(=O)N1C[C@H](C)N(c2ncnc3c2c(N2CCC2)cn3-c2cc(F)cc(F)c2)C[C@H]1C [Compound 218, 1-((2R,5S)-4-(5-(azetidin-1-yl)-7-(3,5-difluorophenyl)-7H-pyrrolo[2,3-d]pyrimidin-4-yl)-2,5-dimethylpiperazin-1-yl)-2-methylpropan-1-one] |  |  | 5.70 to 6.30 | 6.30 to 7.00
13 | C[C@@H]1CN(c2ncnc3c2c(N2CCC2)cn3-c2cccc(F)c2)[C@@H](C)CN1C(=O)C(C)(C)C [Compound 219, 1-((2R,5S)-4-(5-(azetidin-1-yl)-7-(3-fluorophenyl)-7H-pyrrolo[2,3-d]pyrimidin-4-yl)2,5-dimethylpiperazin-1-yl)-2,2-dimethylpropan-1-one] |  |  | > 7.00 | > 7.00
14 | CC(C)C(=O)N1C[C@H](C)N(c2ncnc3c2c(N2CCC2)cn3-c2cccc(Cl)c2)C[C@H]1C [Compound 221, 1-((2R,5S)-4-(5-(azetidin-1-yl)-7-(3-chlorophenyl)-7H-pyrrolo[2,3-d]pyrimidin-4-yl)-2,5-dimethylpiperazin-1-yl)-2-methylpropan-1-one] |  |  | 5.70 to 6.30 | > 7.00
15 | C[C@@H]1CN(c2ncnc3c2c(C(F)(F)F)cn3-c2cccc(C#N)c2)[C@@H](C)CN1C(=O)C(C)(C)C [Compound 222, 3-(4-((2S,5R)-2,5-dimethyl-4-pivaloylpiperazin-1-yl)-5-(trifluoromethyl)-7H-pyrrolo[2,3-d]pyrimidin-7-yl)benzonitrile] |  |  | 6.30 to 7.00 | > 7.00
16 | C[C@@H]1CN(c2ncnc3c2c(C(F)(F)F)cn3-c2cncc(C#N)c2)[C@@H](C)CN1C(=O)C(C)(C)C [Compound 224, 5-(4-((2S,5R)-2,5-dimethyl-4-pivaloylpiperazin-1-yl)-5-(trifluoromethyl)-7H-pyrrolo[2,3-d]pyrimidin-7-yl)nicotinonitrile] |  |  | 5.70 to 6.30 | > 7.00
17 | C[C@@H]1CN(c2ncnc3c2c(C(F)(F)F)cn3-c2cc(F)cc(F)c2)[C@@H](C)CN1C(=O)C(C)(C)C [Compound 225, 1-((2R,5S)-4-(7-(3,5-difluorophenyl)-5-(trifluoromethyl)-7H-pyrrolo[2,3-d]pyrimidin-4-yl)-2,5-dimethylpiperazin-1-yl)-2,2-dimethylpropan-1-one] |  |  | 6.30 to 7.00 | > 7.00
18 | C[C@@H]1CN(c2nccc3c2c(N2CCC2)cn3-c2cccc(F)c2)[C@@H](C)CN1C(=O)C(C)(C)C [Compound 226, 1-((2R,5S)-4-(3-(azetidin-1-yl)-1-(3-fluorophenyl)-1H-pyrrolo[3,2-c]pyridin-4-yl)-2,5-dimethylpiperazin-1-yl)-2,2-dimethylpropan-1-one] |  |  | > 7.00 | > 7.00
19 | C[C@H]1CN(C(=O)C(C)(C)C)CCN1c1nccc2c1c(N1CCC1)cn2-c1cccc(F)c1 [Compound 227, (S)-1-(4-(3-(azetidin-1-yl)-1-(3-fluorophenyl)-1H-pyrrolo[3,2-c]pyridin-4-yl)-3-methylpiperazin-1-yl)-2,2-dimethylpropan-1-one] |  |  | > 7.00 | > 7.00
